Experimental data from patent EP0475531A1, “Benzoic acid phenylester compounds and elastase inhibiting compositions containing the same” (Asahi Kasei Kogyo Kabushiki Kaisha, priority 1990, dated 1992).

The molecules below were run against T1, human leukocyte elastase (Homo sapiens, UniProt P08246) (assay: in vitro human leukocyte elastase inhibiting activity (fluorogenic substrate, method of JP-A-2-101017 with slight modification)). Conditions: not given.
T1 sequence (P08246 30-267): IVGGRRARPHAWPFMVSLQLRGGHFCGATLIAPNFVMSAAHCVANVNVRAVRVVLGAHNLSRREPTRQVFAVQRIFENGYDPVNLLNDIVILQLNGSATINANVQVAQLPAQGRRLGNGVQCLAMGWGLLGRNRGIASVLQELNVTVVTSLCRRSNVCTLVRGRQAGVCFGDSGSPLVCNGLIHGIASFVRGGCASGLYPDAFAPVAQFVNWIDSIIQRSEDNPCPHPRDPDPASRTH
Type: biochemical
Description: Thus, methoxysuccinyl-Ala-Ala-Pro-Val-7-amido-4-methylcoumarin was used as a substrate for human leukocyte elastase and the 50% inhibitory concentration (IC₅₀) was measured. The enzymatic reaction was carried out in 0.2 M Tris-hydrochloride buffer (containing 0.02 M CaCl₂ and 0.005% Triton X-100) at pH 7.2. Each mixture of test compound solution and the enzyme solution was incubated at 25°C for 20 minutes.

Row | Compound | IC50
1 | CC(C)C(=O)Nc1ccc(C(=O)Oc2cc(Cl)cc(OC(=O)N(C)C)c2)cc1 [Compound 81, 3-chloro-5-(dimethylaminocarbonyloxy)phenyl 4-(isobutanoylamino)benzoate] | 6.5 nM

Same assay, conditions: 50% inhibitory concentration; substrate methoxysuccinyl-Ala-Ala-Pro-Val-7-amido-4-methylcoumarin; 0.2 M Tris-hydrochloride buffer (0.02 M CaCl2, 0.005% Triton X-100), pH 7.2; compound and enzyme incubated at 25°C for 20 minutes; read-out: IC50

Row | Compound | IC50
2 | CC(C)(C)C(=O)Nc1ccc(C(=O)Oc2cc(C=O)ccc2[N+](=O)[O-])cc1 [Compound 60, 3-formyl-6-nitrophenyl 4-(pivaloylamino)benzoate] | 4.2 nM
3 | Cc1ccc([N+](=O)[O-])c(OC(=O)c2ccc(NC(=O)C(C)C)cc2)c1 [Compound 52, 3-methyl-6-nitrophenyl 4-(isobutanoylamino)benzoate] | 15 nM
4 | CC(C)C(=O)Nc1ccc(C(=O)Oc2cccc(OC(F)(F)F)c2)cc1 [Compound 89, 3-trifluoromethoxyphenyl 4-(isobutanoylamino)benzoate] | 400 nM

The remaining lines, values ahead:

Row | IC50 | Compound
5 | 98 nM | CS(=O)(=O)Nc1ccc(C(=O)Oc2cc(Cl)cc(Cl)c2)cc1 [Compound 24, 3,5-dichlorophenyl 4-(methanesulfonylamino)benzoate]
6 | 91 nM | CC(C)C(=O)Nc1ccc(C(=O)Oc2cccc([N+](=O)[O-])c2)cc1 [Compound 92, 3-nitrophenyl 4-(isobutanoylamino)benzoate]
7 | 28 nM | O=C(Oc1cc(Cl)cc(Cl)c1)c1ccc(NC(=O)C(Cl)(Cl)Cl)cc1 [Compound 10, 3,5-dichlorophenyl 4-(trichloroacetylamino)benzoate]
8 | 570 nM | N=C(N)Nc1ccc(C(=O)Oc2cc(Cl)cc(Cl)c2)cc1 [Compound 95, reference compound]
9 | 4.5 nM | CC(C)C(=O)Nc1ccc(C(=O)Oc2cc(Cl)cc(Cl)c2Cl)cc1 [Compound 65, 2,3,5-trichlorophenyl 4-(isobutanoylamino)benzoate]
10 | 94 nM | CC(C)C(=O)Nc1ccc(C(=O)Oc2c(Cl)cccc2Cl)cc1 [Compound 66, 2,6-dichlorophenyl 4-(isobutanoylamino)benzoate]
